Assay results published in US20250134858A1, “COMPOSITIONS AND METHODS FOR TREATMENT OF NAFLD AND NASH AND RELATED DYSLIPIDEMIAS” (EpicentRx, Inc., priority 2022, published 2025).

Experiments:
Assay type in all cases: in vivo, rat
[1] = system: Sprague-Dawley rats fed high-fat atherogenic diet (HFD); assay: Relative LDL, HDL, TG and TC levels in rats fed a high-fat atherogenic diet
Method: (§1) Sprague-Dawley rats (6-weeks-old male weighing about 180 grams) were randomly divided into three groups. The first group of the rats were subjected to a normal diet (ND) for a time period of 12 weeks. The second and the third group of the rats were subjected to a high-fat atherogenic diet (HFD, 40 kcal % fat, 1.25% cholesterol, 0.5% sodium cholate) for the time period of 12 weeks. The third HFD group of the rats were treated with about 5 mg/kg of RRx-001 every other week for the last 8 weeks before characterization (“HFD-RRx-001”). Several markers of inflammation and steatosis were evaluated.

[2] = system: Sprague-Dawley rats fed high-fat atherogenic diet (HFD); assay: NASH markers in HFD rats: hepatic TG, hepatic TC, steatosis score, serum ALT and AST; conditions: about 5 mg/kg every other week for last 8 of 12 weeks
Method: as §1
(§2) In a trial that tested for markers related to NASH, every other week administrations of RRx-001 reduced hepatic steatosis scores, serum ALT and AST levels, and hepatic levels of cholesterol and triglycerides in rats fed the HFD.

[3] = system: NLRP3 inflammasome; assay: Serum NLRP3, IL-1β and caspase-1 levels (ELISA) in HFD rats; conditions: about 5 mg/kg every other week for last 8 of 12 weeks
Method: as §1, §2

O=C(CBr)N1CC([N+](=O)[O-])([N+](=O)[O-])C1 [RRx-001, 2-bromo-1-(3,3-dinitroazetidin-1-yl)ethan-1-one]
relative amount of LDL ([1]; about 5 mg/kg RRx-001 every other week for last 8 of 12 weeks, ND normalized to 1.0, HFD alone approximately 6, FIG. 1A): approximately 4 times the LDL amount of the ND rats
relative amount of HDL ([1]; about 5 mg/kg every other week for last 8 of 12 weeks, ND normalized to 1, HFD alone approximately 0.2, FIG. 1B): approximately 0.4 relative to the ND rats
relative amount of total cholesterol (TC) ([1]; about 5 mg/kg every other week for last 8 of 12 weeks, ND normalized to 1, HFD alone approximately 2.7, FIG. 1D): approximately 1.8 times relative to the ND rats
relative amount of triglycerides (TG) ([1]; about 5 mg/kg every other week for last 8 of 12 weeks, ND normalized to 1, HFD alone approximately 6.2, FIG. 1C): approximately 4.4 relative to the ND rats
relative amount of hepatic TC ([2]; ND normalized to 1, HFD alone approximately 4.3, FIG. 3B): approximately 3.8 times relative to the ND rats
relative amount of hepatic TGs ([2]; ND normalized to 1, HFD alone approximately 8.2, FIG. 3A): approximately 5.7 times relative to the amounts of the ND rats
relative amount of IL-1β ([3]; ND normalized to 1, HFD alone approximately 1.7, FIG. 5B): approximately 1.2 times relative to the amount in the ND rats
relative amount of serum NLRP3 ([3]; ND normalized to 1, HFD alone approximately 1.75, FIG. 5A): approximately 1.3 times relative to the rats that were fed the ND
relative amount of caspase-1 ([3]; ND normalized to 1, HFD alone approximately 2.0, FIG. 5C): approximately 1.3 times relative to the rats that were fed the ND
